Entries after “also recorded” stand apart in the source; their conditions may differ.
What was measured:
cerebellar tissue slices = assay: MPP+-induced cell death in cerebellar tissue slice culture (PI and NeuN staining); type: cell-based, rat; settings: 30 μM, MPP+ 3 days
Description: Cerebellar tissue slice were treated with 30 μM BHDPC with or without MPP^+ for 72 h and then were stained with PI.
Following decapitation, brains of post-natal Day 9-10 SD rat were dissected out and sagittal slices (300 μm) of the cerebellum were immediately cut using a McIlwain tissue chopper, the slices were then isolated in Eagle's medium with Earle's salts medium (MEM) on ice and then placed on Millipore Millicell-CM™ organotypic culture inserts in pre-warmed medium containing MEM, Earle's balanced salt solution, heat-inactivated horse serum, GlutaMAX™, Fungizone®, and penicillin-streptomycin (each from Invitrogen), and glucose (Sigma). […]
After 3-4 days treatment of MPP^+ together with BHDPC, slices were fixed with 4% paraformaldehyde and then stained by immunohistochemistry. […] Three to four separate slice isolations (about 4-5 pups/isolation) were used, with 3-5 slices analysed from each isolation for each factor and dose.
Slices were fixed with 4% paraformaldehyde at room temperature for 1 hour, blocked with 5% donkey serum, 0.3% Triton™ X-100, and then incubated in primary antibodies for 2 days at 4° C. […] Confocal z-stacks were acquired (at 1.3 μm intervals and 10-15 images were acquired per stack) with a Leica SPE confocal microscope and images analysed using NIH ImageJ. […]

[1] = system: oligodendroglial progenitor cells (OPCs); assay: LPS-induced OPC death (MTT assay); type: cell-based, rat; settings: 30 μM BHDPC 2 h, LPS 24 h
Description: OPCs were incubated with 30 μM BHDPC or 0.1% DMSO (vehicle control) for 2 h followed by the addition or not of 200 μM H2O2 for a further 6 h (FIG. 11A) or LPS (FIG. 11B) for 24 h.
The percentage of surviving cells was estimated by determining the activity of mitochondrial dehydrogenases with 3(4,5-dimethylthiazol-2-yl)-2,5-diphenyltetrazolium bromide (MTT) assay. After drug treatment, cells were incubated at 37° C. for 4 h in 0.5 mg/mL MTT solution. The medium was then removed, and 100 μL of DMSO was added to each well to dissolve the violet formazan crystals. The absorbance of the samples was measured at a wavelength of 570 nm with 655 nm as a reference wavelength. All values were normalized to the control groups.
Purified OPC cultures were prepared as described. In brief, primary rat mixed glial cell cultures were isolated from whole brains of postnatal day (P) 2 rats, dissociated into single cells, and cultured into poly-D-lysine (PDL) coated T75 tissue culture flasks. Plating medium consisted of Dulbecco's modified Eagle's medium (DMEM, Invitrogen, Carlsbad, Calif.) supplemented with 10% fetal bovine serum (FBS; Invitrogen, Carlsbad, Calif.), […]. Tissue cultures were maintained at 37° C. in a humidified 5% CO2 incubator, and medium was exchanged every 3 days. […]

zebrafish = assay: MPTP-induced deficit of locomotion behavior in zebrafish larvae; type: in vivo, Danio rerio
Description: Three dpf zebrafish embryos were co-incubated with 10 μM MPTP and BHDPC at the indicated concentrations for 96 hours, and zebrafish larval co-treated with MPTP and 150 μM L-dopa was used as positive control. After treatment, zebrafish were collected to perform locomotion behavior test using Viewpoint Zebrabox system and total distances travelled in 10 min were calculated.
The AB strain of wild type zebrafish (Danio rerio) was maintained as described in the Zebrafish Handbook. Zebrafish were staged by days post fertilization […]. For breeding, groups of male and female (3:2) adult zebrafish were placed in 10-L plastic aquarium equipped with spawning nets in the evening. In the following morning, eggs were collected from the breeding group tanks. Normally developed fertilized eggs were selected under a stereomicroscope for further studies. The MPTP manipulation was performed with appropriate safety precautions and all MPTP-containing water was bleached.
In addition, MPTP markedly altered the swimming behavior of the zebrafish as a consequence of DA neuronal injury. […] BHDPC ameliorated MPTP-induced deficit of swimming behavior. At the same condition, MPTP-induced deficit of swimming behavior were rescued by positive controls, levodopa (L-dopa) (FIG. 16).

COc1cc(C2C(C(=O)OCc3ccccc3)=C(C)Nc3nnnn32)ccc1O (centres unmarked) [BHDPC, benzyl 7-(4-hydroxy-3-methoxyphenyl)-5-methyl-4,7-dihydrotetrazolo[1,5-a]pyrimidine-6-carboxylate]
MPP+-induced CNS cells death and neurons death in brain slices (cerebellar tissue slices): prevented MPP^+-induced neuronal death
MPP+-induced CNS cells death and neurons death in brain slices (cerebellar tissue slices; listed as BHDPCs): attenuated
LPS-induced cell death [1]: reduced LPS-induced cell death
swimming behaviour of normal zebrafish larvae (zebrafish; BHDPC treatment alone): notably altered
MPTP-induced deficit of swimming behavior (total distance travelled in 10 min) (zebrafish; co-incubated with 10 μM MPTP, 96 hours, 3 dpf): ameliorated; also recorded: attenuated

From patent US20160113931A1, “Method of treating and/or preventing neurodegenerative diseases” (University of Macau, priority 2014, published 2016)
